Assay results reported in ChEMBL document CHEMBL1201862, “PubChem BioAssay data set” (2004).
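Compound exposure: 48 hours, 5 concentrations, 96-well plates. GI50 marks 50% less growth.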 Active and inactive are the calls of the source. No stated cut-off is given here; in the data, active = GI50 up to about 1.1 µM and inactive = higher.

Assays:
Test in all cases: DTP human tumour cell line panel, 48 h
CAKI-1 = system: CAKI-1
A498 = system: A498
ACHN = system: ACHN
LOX IMVI = system: LOX IMVI
UACC-62 = system: UACC-62
SK-MEL-2 = system: SK-MEL-2
NCI-H460 = system: NCI-H460
SF-268 = system: SF-268
M14 = system: M14
RXF 393 = system: RXF 393
A549 = system: A549
SN12C = system: SN12C
RPMI-8226 = system: RPMI-8226
NCI-H23 = system: NCI-H23
HOP-92 = system: HOP-92
COLO 205 = system: COLO 205
U-251 = system: U-251
TK-10 = system: TK-10
IGROV-1 = system: IGROV-1
NCI-H226 = system: NCI-H226

Measured: GI50

COc1ccc(OC)c(/C=C/C(=O)C(C)(C)C)c1
inactive: CAKI-1 20.6 µM | A498 28.1 µM | ACHN 19.9 µM | LOX IMVI 21.1 µM | UACC-62 9.55 µM | SK-MEL-2 > 10 µM | NCI-H460 34.8 µM | SF-268 > 10 µM | M14 15.7 µM | RXF 393 18.5 µM | A549 29.4 µM | SN12C 21 µM | RPMI-8226 13.3 µM | NCI-H23 19.6 µM | HOP-92 18.7 µM | COLO 205 19 µM | U-251 20 µM | TK-10 26.4 µM | IGROV-1 18.2 µM | NCI-H226 17.4 µM
